Measured values published in patent US12454529B2, “Piperazine cyclic ureas” (SIRONAX LTD., priority 2020, dated 2025).

What follows are molecules tested on HT-29 cells (assay: HT-29 cell necrosis/necroptosis inhibition (TNF-α + SMAC mimetic + zVAD-FMK; CellTiter-Glo cell viability)). Conditions: Homo sapiens; HT-29 cells, TNF-α 10 ng/ml + SMAC mimetic 6 μM + zVAD-FMK 10 μM, 20 hours; geometric mean, 10 points in duplicate; read-out: EC50 (Cell activity; Necrosis/Necroptosis Inhibitory Activity, Compounds 1-142).
Type: cell-based
Method in brief: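 HT-29 cells (~5,000/well) were switched to FBS-free McCOY's 5A holding TNF-α (10 ng/ml), SMAC mimetic (6 μM) and zVAD-FMK (10 μM), then dosed with a 10-point 1:3 series for 20 h at 37 °C. CellTiter-Glo luminescence gave viability; geometric mean EC50 from duplicates.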

Structure (SMILES)	EC50
COC(=O)c1cc(C)n(-c2nc(N3CCN(C(=O)N4N=CC[C@H]4c4cc(F)cc(F)c4)CC3)ncc2F)c1 [Compound 91, methyl (5)-1-(2-(4-(5-(3,5-difluorophenyl)-4,5-dihydro-1H-pyrazole-1-carbonyl)piperazin-1-yl)-5-fluoropyrimidin-4-yl)-5-methyl-1H-pyrrole-3-carboxylate]	0.1 to 100 nM
Cc1nc(C)n(-c2cc(N3CCN(C(=O)N4N=CC[C@H]4c4cc(F)cc(F)c4)CC3)ncn2)n1 [Compound 90, (S)-(5-(3,5-difluorophenyl)-4,5-dihydro-1H-pyrazol-1-yl)(4-(6-(3,5-dimethyl-1H-1,2,4-triazol-1-yl)pyrimidin-4-yl)piperazin-1-yl)methanone]	0.1 to 100 nM
Cc1nn(CC(N)=O)nc1-c1nc(N2CCN(C(=O)N3N=CC[C@H]3c3cc(F)cc(F)c3)CC2)ncc1F [Compound 32, (S)-2-(4-(2-(4-(5-(3,5-difluorophenyl)-4,5-dihydro-1H-pyrazole-1-carbonyl)piperazin-1-yl)-5-fluoropyrimidin-4-yl)-5-methyl-2H-1,2,3-triazol-2-yl)acetamide]	0.1 to 100 nM
N#Cc1cc(F)cc([C@@H]2CC=NN2C(=O)N2CCN(c3ncc(F)c(-c4ccc(O)nc4)n3)CC2)c1 [Compound 48, (S)-3-fluoro-5-(1-(4-(5-fluoro-4-(6-hydroxypyridin-3-yl)pyrimidin-2-yl)piperazine-1-carbonyl)-4,5-dihydro-1H-pyrazol-5-yl)benzonitrile]	0.1 to 100 nM
NC(=O)Cn1cc(-c2nc(N3CCN(C(=O)N4N=CC[C@H]4c4cc(F)cc(F)c4)CC3)ncc2F)cn1 [Compound 53, (S)-2-(4-(2-(4-(5-(3,5-difluorophenyl)-4,5-dihydro-1H-pyrazole-1-carbonyl)piperazin-1-yl)-5-fluoropyrimidin-4-yl)-1H-pyrazol-1-yl)acetamide]	0.1 to 100 nM
O=C(N1CCN(c2nccc(-c3cc[nH]n3)n2)CC1)N1N=CC[C@H]1c1ccccc1 [Compound 39, (S)-(4-(4-(1H-pyrazol-3-yl)pyrimidin-2-yl)piperazin-1-yl)(5-phenyl-4,5-dihydro-1H-pyrazol-1-yl)methanone]	0.1 to 100 nM
O=C(N1CCN(c2ccnc(-c3ccc[nH]3)n2)CC1)N1N=CC[C@H]1c1cc(F)cc(F)c1 [Compound 5, (S)-(4-(2-(1H-pyrrol-2-yl)pyrimidin-4-yl)piperazin-1-yl)(5-(3,5-difluorophenyl)-4,5-dihydro-1H-pyrazol-1-yl)methanone]	0.1 to 100 nM
O=C(N1CCN(c2ncc(F)c(-c3[nH]nnc3C(F)(F)F)n2)CC1)N1N=CC[C@H]1c1cc(F)cc(F)c1 [Compound 105, (S)-(5-(3,5-difluorophenyl)-4,5-dihydro-1H-pyrazol-1-yl)(4-(5-fluoro-4-(4-(trifluoromethyl)-1H-1,2,3-triazol-5-yl)pyrimidin-2-yl)piperazinyl)methanone]	0.1 to 100 nM
CCn1c(C)nn(-c2nc(N3CCN(C(=O)N4N=CC[C@H]4c4cc(F)cc(F)c4)CC3)ncc2F)c1=O [Compound 98, (S)-2-(2-(4-(5-(3,5-difluorophenyl)-4,5-dihydro-1H-pyrazole-1-carbonyl)piperazin-1-yl)-5-fluoropyrimidin-4-yl)-4-ethyl-5-methyl-2,4-dihydro-3H-1,2,4-triazol-3-one]	0.1 to 100 nM

Same assay, conditions: Homo sapiens; HT-29 cells, TNF-α 10 ng/ml + SMAC mimetic 6 μM + zVAD-FMK 10 μM, 20 hours; geometric mean, 10 points in duplicate; read-out: EC50 (Cell activity; Necrosis/Necroptosis Inhibitory Activity, Compounds 143-323)

Structure (SMILES)	EC50
Cc1nn(S(C)(=O)=O)c(C)c1-c1nc(N2CCN(C(=O)N3N=CC[C@H]3c3cc(F)cc(C#N)c3)CC2)ncc1F [Compound 208, (S)-3-(1-(4-(4-(3,5-dimethyl-1-(methylsulfonyl)-1H-pyrazol-4-yl)-5-fluoropyrimidin-2-yl)piperazine-1-carbonyl)-4,5-dihydro-1H-pyrazol-5-yl)-5-fluorobenzonitrile]	0.1 to 100 nM
Cc1nc(C)n(-c2nc(N3C[C@@H](C)N(C(=O)N4N=CC[C@H]4c4cc(F)cc(C#N)c4)[C@@H](C)C3)ncc2F)n1 [Compound 146, 3-((S)-1-((2S,6R)-4-(4-(3,5-dimethyl-1H-1,2,4-triazol-1-yl)-5-fluoropyrimidin-2-yl)-2,6-dimethylpiperazine-1-carbonyl)-4,5-dihydro-1H-pyrazol-5-yl)-5-fluorobenzonitrile]	1000 to 10000 nM
Cc1nc(C)n(-c2nc(N3CCN(C(=O)N4N=CCC4c4nccs4)CC3)ncc2F)n1 (centres unmarked) [Compound 217, (4-(4-(3,5-dimethyl-1H-1,2,4-triazol-1-yl)-5-fluoropyrimidin-2-yl)piperazin-1-yl)(5-(thiazol-2-yl)-4,5-dihydro-1H-pyrazol-1-yl)methanone]	0.1 to 100 nM
Cc1nc(C2CC=NN2C(=O)N2CCN(c3nc(-c4c(C)cnn4C)ncc3F)CC2)cs1 (centres unmarked) [Compound 158, (4-(2-(1,4-dimethyl-1H-pyrazol-5-yl)-5-fluoropyrimidin-4-yl)piperazinyl)(5-(2-methylthiazol-4-yl)-4,5-dihydro-1H-pyrazol-1-yl)methanone]	0.1 to 100 nM
Cn1nc(C(N)=O)nc1-c1nc(N2CCN(C(=O)N3N=CCC3c3cncc(F)c3)CC2)ncc1F (centres unmarked) [Compound 226, 5-(5-fluoro-2-(4-(5-(5-fluoropyridin-3-yl)-4,5-dihydro-1H-pyrazole-1-carbonyl)piperazin-1-yl)pyrimidin-4-yl)-1-methyl-1H-1,2,4-triazole-3-carboxamide]	0.1 to 100 nM
Cc1nc(CO)nn1-c1nc(N2CCN(C(=O)N3N=CC[C@H]3c3cncc(F)c3)CC2)ncc1F [Compound 250, (S)-(4-(5-fluoro-4-(3-(hydroxymethyl)-5-methyl-1H-1,2,4-triazol-1-yl)pyrimidin-2-yl)piperazin-1-yl)(5-(5-fluoropyridin-3-yl)-4,5-dihydro-1H-pyrazol-1-yl)methanone]	0.1 to 100 nM
CCn1ncnc1-c1nc(N2CCN(C(=O)N3N=CC[C@H]3c3cc(F)cc(C#N)c3)CC2)ncc1Cl [Compound 168, (S)-3-(1-(4-(5-chloro-4-(1-ethyl-1H-1,2,4-triazol-5-yl)pyrimidin-2-yl)piperazine-1-carbonyl)-4,5-dihydro-1H-pyrazol-5-yl)-5-fluorobenzonitrile]	0.1 to 100 nM
O=C(N1CCN(c2ncc(F)c(-n3cnc(C(F)(F)F)n3)n2)CC1)N1N=CC[C@H]1c1cc(F)cc(F)c1 [Compound 305, (S)-(5-(3,5-difluorophenyl)-4,5-dihydro-1H-pyrazol-1-yl)(4-(5-fluoro-4-(3-(trifluoromethyl)-1H-1,2,4-triazol-1-yl)pyrimidin-2-yl)piperazin-1-yl)methanone]	0.1 to 100 nM
Cc1nn(-c2cc(N3CCN(C(=O)N4N=CC[C@H]4c4cc(F)cc(C#N)c4)CC3)ncn2)c(C)c1C#N [Compound 279, (S)-1-(6-(4-(5-(3-cyano-5-fluorophenyl)-4,5-dihydro-1H-pyrazole-1-carbonyl)piperazin-1-yl)pyrimidin-4-yl)-3,5-dimethyl-1H-pyrazole-4-carbonitrile]	0.1 to 100 nM
Cc1nn(-c2ccnc(N3CCN(C(=O)N4N=CC[C@H]4c4cc(F)cc(C#N)c4)CC3)n2)c(C)c1Br [Compound 273, (S)-3-(1-(4-(4-(4-bromo-3,5-dimethyl-1H-pyrazol-1-yl)pyrimidinyl)piperazine-1-carbonyl)-4,5-dihydro-1H-pyrazol-5-yl)-5-fluorobenzonitrile]	0.1 to 100 nM
Cc1cnn(C)c1-c1ncc(F)c(N2CCN(C(=O)N3N=CCC3c3cscn3)CC2)n1 (centres unmarked) [Compound 160, (4-(2-(1,4-dimethyl-1H-pyrazol-5-yl)-5-fluoropyrimidin-4-yl)piperazin-1-yl)(5-(thiazol-4-yl)-4,5-dihydro-1H-pyrazol-1-yl)methanone]	0.1 to 100 nM
Cc1c(N)nn(C)c1-c1ccnc(N2CCN(C(=O)N3N=CC[C@H]3c3cc(F)cc(C#N)c3)CC2)n1 [Compound 154, (S)-3-(1-(4-(4-(3-amino-1,4-dimethyl-1H-pyrazol-5-yl)pyrimidin-2-yl)piperazine-1-carbonyl)-4,5-dihydro-1H-pyrazol-5-yl)-5-fluorobenzonitrile]	0.1 to 100 nM
Cc1nc(C#N)nn1-c1nc(N2CCN(C(=O)N3N=CC[C@H]3c3cc(F)cc(F)c3)CC2)ncc1F [Compound 254, (S)-1-(2-(4-(5-(3,5-difluorophenyl)-4,5-dihydro-1H-pyrazole-1-carbonyl)piperazin-1-yl)-5-fluoropyrimidin-4-yl)-5-methyl-1H-1,2,4-triazole-3-carbonitrile]	0.1 to 100 nM
Cc1nn(-c2ccnc(N3CCN(C(=O)N4N=CC[C@H]4c4cc(F)cc(C#N)c4)CC3)n2)c(C)c1Cl [Compound 288, (S)-3-(1-(4-(4-(4-chloro-3,5-dimethyl-1H-pyrazol-1-yl)pyrimidin-2-yl)piperazine-1-carbonyl)-4,5-dihydro-1H-pyrazol-5-yl)-5-fluorobenzonitrile]	0.1 to 100 nM
Cn1nc(C#N)nc1-c1nc(N2CCN(C(=O)N3N=CCC3c3cncc(F)c3)CC2)ncc1F (centres unmarked) [Compound 229, 5-(5-fluoro-2-(4-(5-(5-fluoropyridin-3-yl)-4,5-dihydro-1H-pyrazole-1-carbonyl)piperazin-1-yl)pyrimidin-4-yl)-1-methyl-1H-1,2,4-triazole-3-carbonitrile]	0.1 to 100 nM
Cn1nc(C(N)=O)nc1-c1nc(N2CCN(C(=O)N3N=CCC3c3cc(F)cc(F)c3)CC2)ncc1F (centres unmarked) [Compound 225, 5-(2-(4-(5-(3,5-difluorophenyl)-4,5-dihydro-1H-pyrazole-1-carbonyl)piperazin-1-yl)-5-fluoropyrimidin-4-yl)-1-methyl-1H-1,2,4-triazole-3-carboxamide]	0.1 to 100 nM
Cc1nc(C(N)=O)nn1-c1nc(N2CCN(C(=O)N3N=CC[C@H]3c3cc(F)cc(F)c3)CC2)ncc1F [Compound 252, (S)-1-(2-(4-(5-(3,5-difluorophenyl)-4,5-dihydro-1H-pyrazole-1-carbonyl)piperazin-1-yl)-5-fluoropyrimidin-4-yl)-5-methyl-1H-1,2,4-triazole-3-carboxamide]	0.1 to 100 nM
